# According to US11572590B2, “Methods for evaluating tumor cell spheroids using 3D microfluidic cell culture device” (Dana-Farber Cancer Institute, Inc., priority 2017, dated 2023):
# Like-named read-outs stand apart in the source and are kept apart here.
# Key:
# Assay in all cases: SelectScreen Kinase Profiling, single point inhibition and IC50 for off-target kinases
# Assay type in all cases: biochemical
# off-target kinases [1] = biological target: off-target kinases (Homo sapiens, UniProt O00238); conditions: BMPR1B (ALK6), LanthaScreen Binding
# off-target kinases [2] = biological target: off-target kinases (Homo sapiens, UniProt P04629); conditions: NTRK1 (TRKA), ZLYTE, ATP Km app
# off-target kinases [3] = biological target: off-target kinases (Homo sapiens, UniProt P36507); conditions: MAP2K2 (MEK2)
# off-target kinases [4] = biological target: off-target kinases (Homo sapiens, UniProt P54756); conditions: EPHA5, ZLYTE, ATP Km app
# off-target kinases [5] = biological target: off-target kinases (Homo sapiens, UniProt P80192); conditions: MAP3K9 (MLK1), ATP Km app, ZLYTE
# off-target kinases [6] = biological target: off-target kinases (Homo sapiens, UniProt Q9BUB5); conditions: MKNK1 (MNK1), ATP Km app, ZLYTE
# off-target kinases [7] = biological target: T1, off-target kinases (Homo sapiens, UniProt Q9NRA0); conditions: SPHK2; Cmpd1 1000 μM; ATP 10; Adapta
# T1 sequence (Q9NRA0 1-654): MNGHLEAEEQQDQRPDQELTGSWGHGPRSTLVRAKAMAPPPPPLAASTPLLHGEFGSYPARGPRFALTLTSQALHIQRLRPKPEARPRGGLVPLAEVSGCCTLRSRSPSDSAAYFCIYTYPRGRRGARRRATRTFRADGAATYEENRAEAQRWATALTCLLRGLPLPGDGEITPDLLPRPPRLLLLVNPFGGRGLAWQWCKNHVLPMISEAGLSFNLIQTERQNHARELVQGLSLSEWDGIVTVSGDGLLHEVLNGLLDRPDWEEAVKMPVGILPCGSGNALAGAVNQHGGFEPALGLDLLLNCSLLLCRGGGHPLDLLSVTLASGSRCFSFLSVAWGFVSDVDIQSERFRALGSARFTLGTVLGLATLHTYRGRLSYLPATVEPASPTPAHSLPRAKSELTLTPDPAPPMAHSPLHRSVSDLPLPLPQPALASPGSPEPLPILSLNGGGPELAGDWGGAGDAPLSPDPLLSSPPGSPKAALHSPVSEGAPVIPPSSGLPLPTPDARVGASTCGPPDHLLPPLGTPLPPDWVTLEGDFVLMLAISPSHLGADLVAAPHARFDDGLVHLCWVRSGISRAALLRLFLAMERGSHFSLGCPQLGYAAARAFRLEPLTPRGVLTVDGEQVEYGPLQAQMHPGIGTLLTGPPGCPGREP
# off-target kinases [8] = biological target: off-target kinases (Homo sapiens, UniProt Q9P286); conditions: PAK7 (KIAA1264), ATP Km app, ZLYTE
# Chain of off-target kinases (Homo sapiens, UniProt Q9P286) (Q9P286 whole entry): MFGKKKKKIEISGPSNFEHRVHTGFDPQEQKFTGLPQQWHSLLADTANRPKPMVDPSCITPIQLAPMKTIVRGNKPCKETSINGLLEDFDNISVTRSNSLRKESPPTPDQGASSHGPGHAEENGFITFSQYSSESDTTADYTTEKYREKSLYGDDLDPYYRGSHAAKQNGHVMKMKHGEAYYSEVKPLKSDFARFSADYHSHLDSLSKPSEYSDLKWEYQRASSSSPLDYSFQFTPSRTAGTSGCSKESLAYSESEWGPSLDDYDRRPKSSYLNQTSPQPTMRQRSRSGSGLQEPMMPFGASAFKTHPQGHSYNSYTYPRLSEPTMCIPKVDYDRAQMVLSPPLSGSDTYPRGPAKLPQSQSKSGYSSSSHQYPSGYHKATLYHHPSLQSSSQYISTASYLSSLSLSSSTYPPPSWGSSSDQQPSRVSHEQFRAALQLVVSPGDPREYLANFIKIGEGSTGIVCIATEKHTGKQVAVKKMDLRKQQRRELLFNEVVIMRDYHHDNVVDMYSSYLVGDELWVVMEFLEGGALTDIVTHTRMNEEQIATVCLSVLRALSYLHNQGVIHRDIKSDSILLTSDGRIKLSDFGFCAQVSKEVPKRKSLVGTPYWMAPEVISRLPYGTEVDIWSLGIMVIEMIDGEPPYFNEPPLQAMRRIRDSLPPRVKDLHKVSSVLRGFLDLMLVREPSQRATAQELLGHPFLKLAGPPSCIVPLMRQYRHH
# Chain of off-target kinases (Homo sapiens, UniProt Q9BUB5) (Q9BUB5 whole entry): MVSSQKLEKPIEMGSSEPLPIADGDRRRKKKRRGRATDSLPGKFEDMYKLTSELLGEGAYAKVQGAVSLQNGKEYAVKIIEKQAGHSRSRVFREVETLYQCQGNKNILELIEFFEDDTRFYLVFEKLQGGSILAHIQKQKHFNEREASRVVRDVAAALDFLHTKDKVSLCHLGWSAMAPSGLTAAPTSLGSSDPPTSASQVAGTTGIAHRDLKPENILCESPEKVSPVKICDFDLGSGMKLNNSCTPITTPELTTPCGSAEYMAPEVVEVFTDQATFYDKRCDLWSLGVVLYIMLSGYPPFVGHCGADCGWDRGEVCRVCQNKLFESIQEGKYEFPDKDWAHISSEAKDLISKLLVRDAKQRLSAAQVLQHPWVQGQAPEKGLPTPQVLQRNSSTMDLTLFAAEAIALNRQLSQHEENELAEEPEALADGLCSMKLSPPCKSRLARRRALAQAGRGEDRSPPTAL
# Chain of off-target kinases (Homo sapiens, UniProt P36507) (P36507 whole entry): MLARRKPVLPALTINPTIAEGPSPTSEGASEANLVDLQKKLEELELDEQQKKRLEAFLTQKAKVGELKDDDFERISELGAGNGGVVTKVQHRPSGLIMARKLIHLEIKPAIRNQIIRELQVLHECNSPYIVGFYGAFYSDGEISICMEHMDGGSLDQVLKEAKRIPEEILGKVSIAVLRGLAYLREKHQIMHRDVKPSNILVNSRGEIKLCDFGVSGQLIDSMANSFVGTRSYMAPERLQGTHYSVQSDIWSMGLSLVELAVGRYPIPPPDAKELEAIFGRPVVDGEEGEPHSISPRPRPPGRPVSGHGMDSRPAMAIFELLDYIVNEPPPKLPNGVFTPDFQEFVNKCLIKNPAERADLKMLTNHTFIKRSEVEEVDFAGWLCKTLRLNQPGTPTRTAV
# Chain of off-target kinases (Homo sapiens, UniProt P80192) (P80192 whole entry): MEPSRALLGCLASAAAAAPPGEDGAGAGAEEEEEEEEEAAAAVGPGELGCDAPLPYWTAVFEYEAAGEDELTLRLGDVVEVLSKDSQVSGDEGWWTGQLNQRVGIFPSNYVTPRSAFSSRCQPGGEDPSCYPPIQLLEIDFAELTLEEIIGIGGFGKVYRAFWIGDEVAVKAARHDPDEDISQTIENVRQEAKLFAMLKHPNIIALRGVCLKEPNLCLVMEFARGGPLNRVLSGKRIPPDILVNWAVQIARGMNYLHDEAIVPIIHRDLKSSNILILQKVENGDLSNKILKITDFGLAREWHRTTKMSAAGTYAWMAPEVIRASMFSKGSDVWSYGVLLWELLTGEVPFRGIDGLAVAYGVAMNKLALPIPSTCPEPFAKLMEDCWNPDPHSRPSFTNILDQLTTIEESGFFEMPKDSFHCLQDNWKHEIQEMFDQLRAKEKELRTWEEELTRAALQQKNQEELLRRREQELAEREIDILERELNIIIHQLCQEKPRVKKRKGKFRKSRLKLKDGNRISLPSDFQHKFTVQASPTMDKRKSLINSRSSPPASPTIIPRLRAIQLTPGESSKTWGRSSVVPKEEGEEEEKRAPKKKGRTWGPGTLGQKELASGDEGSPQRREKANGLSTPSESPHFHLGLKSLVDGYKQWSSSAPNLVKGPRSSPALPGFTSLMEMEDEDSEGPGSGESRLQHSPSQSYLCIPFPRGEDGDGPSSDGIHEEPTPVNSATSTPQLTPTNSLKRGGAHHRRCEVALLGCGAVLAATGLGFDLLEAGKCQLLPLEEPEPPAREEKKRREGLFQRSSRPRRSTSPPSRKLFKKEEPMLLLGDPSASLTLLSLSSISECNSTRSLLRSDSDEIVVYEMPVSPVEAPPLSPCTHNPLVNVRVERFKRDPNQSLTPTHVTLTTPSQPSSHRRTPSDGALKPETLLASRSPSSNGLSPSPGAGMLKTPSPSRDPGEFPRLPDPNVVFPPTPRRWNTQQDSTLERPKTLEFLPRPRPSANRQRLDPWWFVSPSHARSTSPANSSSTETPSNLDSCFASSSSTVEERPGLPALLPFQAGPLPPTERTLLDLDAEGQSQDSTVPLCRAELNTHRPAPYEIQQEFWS
# Chain of off-target kinases (Homo sapiens, UniProt P54756) (P54756 25-1037): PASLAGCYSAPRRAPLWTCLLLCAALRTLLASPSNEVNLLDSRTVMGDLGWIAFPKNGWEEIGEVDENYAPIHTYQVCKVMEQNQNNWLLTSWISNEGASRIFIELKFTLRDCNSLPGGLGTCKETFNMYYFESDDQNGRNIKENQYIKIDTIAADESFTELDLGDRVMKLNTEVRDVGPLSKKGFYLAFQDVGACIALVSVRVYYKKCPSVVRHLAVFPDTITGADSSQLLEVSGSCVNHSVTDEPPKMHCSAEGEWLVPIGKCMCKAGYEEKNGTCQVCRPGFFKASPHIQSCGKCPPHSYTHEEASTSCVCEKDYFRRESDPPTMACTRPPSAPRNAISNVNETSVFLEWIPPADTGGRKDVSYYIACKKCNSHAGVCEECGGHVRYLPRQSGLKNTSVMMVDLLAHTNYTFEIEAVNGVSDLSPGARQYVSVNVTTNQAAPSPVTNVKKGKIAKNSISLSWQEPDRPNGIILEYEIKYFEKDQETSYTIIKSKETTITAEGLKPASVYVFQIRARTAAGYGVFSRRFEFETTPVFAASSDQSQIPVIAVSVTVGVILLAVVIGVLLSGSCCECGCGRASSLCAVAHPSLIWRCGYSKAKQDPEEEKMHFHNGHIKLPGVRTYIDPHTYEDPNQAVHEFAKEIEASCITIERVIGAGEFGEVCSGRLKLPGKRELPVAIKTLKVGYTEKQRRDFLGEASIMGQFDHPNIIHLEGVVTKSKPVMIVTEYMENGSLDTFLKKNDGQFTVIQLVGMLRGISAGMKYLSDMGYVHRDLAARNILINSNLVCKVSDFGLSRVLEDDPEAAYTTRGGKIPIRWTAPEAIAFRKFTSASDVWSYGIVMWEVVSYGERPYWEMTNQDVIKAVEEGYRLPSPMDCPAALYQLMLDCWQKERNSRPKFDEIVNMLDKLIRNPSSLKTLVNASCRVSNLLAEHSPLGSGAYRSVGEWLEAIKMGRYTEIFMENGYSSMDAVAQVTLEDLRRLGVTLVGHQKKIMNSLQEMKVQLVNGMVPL
# Chain of off-target kinases (Homo sapiens, UniProt P04629) (P04629 33-796): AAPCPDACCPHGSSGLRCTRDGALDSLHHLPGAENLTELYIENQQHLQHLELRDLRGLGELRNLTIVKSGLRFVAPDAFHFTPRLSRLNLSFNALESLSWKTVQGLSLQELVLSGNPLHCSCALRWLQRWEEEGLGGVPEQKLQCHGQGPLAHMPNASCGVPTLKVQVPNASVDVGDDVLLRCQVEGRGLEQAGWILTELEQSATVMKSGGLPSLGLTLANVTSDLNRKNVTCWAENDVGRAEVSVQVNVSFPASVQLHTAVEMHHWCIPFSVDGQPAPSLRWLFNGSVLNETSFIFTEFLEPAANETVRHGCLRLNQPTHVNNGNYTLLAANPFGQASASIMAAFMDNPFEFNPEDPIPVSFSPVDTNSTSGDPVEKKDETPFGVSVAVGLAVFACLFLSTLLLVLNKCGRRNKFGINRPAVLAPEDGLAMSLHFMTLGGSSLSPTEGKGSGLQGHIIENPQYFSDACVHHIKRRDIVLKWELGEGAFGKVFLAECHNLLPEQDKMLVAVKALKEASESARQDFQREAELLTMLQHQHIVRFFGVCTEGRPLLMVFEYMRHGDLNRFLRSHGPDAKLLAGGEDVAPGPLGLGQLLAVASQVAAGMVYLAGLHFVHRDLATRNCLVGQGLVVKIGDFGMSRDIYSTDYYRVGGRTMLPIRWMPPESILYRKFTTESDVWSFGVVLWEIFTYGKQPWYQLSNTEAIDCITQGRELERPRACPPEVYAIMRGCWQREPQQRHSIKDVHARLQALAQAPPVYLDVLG
# Chain of off-target kinases (Homo sapiens, UniProt O00238) (O00238 14-502): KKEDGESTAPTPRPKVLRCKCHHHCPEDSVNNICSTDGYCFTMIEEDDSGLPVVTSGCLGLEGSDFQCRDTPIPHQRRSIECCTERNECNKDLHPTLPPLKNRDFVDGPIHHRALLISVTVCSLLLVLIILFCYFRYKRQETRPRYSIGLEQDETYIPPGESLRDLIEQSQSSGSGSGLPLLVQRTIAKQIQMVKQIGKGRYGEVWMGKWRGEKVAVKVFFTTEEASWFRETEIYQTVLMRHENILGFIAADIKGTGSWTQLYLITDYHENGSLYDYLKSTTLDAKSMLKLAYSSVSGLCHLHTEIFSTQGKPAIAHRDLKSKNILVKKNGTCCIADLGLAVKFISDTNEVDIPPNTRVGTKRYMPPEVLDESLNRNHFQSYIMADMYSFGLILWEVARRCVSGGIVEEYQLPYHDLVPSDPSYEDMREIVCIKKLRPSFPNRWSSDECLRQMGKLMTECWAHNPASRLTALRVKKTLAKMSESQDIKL
smiles,measurement,setting,value
"N#Cc1cc(-c2ncnc(Nc3ccc(N4CCN(C5COC5)CC4)cc3)n2)ccc1OC1CCOCC1 [Compound 1, 5-(4-((4-(4-(oxetan-3-yl)piperazin-1-yl)phenyl)amino)-1,3,5-triazin-2-yl)-2-((tetrahydro-2H-pyran-4-yl)oxy)benzonitrile]",inhibition,off-target kinases [1]; read-out: % Inhibition 1,56%
same,inhibition,off-target kinases [1]; read-out: % Inhibition 2,60%
same,inhibition,off-target kinases [1]; read-out: % Inhibition Avg,58%
same,inhibition,off-target kinases [2]; read-out: % Inhibition 1,16%
same,inhibition,off-target kinases [2]; read-out: % Inhibition 2,20%
same,inhibition,off-target kinases [2]; read-out: % Inhibition Avg,18%
same,inhibition,"off-target kinases [3]; LanthaScreen Binding, read-out: % Inhibition 1",5%
same,inhibition,"off-target kinases [3]; LanthaScreen Binding, read-out: % Inhibition 2",5%
same,inhibition,"off-target kinases [3]; LanthaScreen Binding, read-out: % Inhibition Avg",5%
same,inhibition,"off-target kinases [3]; ZLYTE, ATP 100, read-out: % Inhibition 1",13%
same,inhibition,"off-target kinases [3]; ZLYTE, ATP 100, read-out: % Inhibition 2",2%
same,inhibition,"off-target kinases [3]; ZLYTE, ATP 100, read-out: % Inhibition Avg",8%
same,inhibition,off-target kinases [4]; read-out: % Inhibition 1,3%
same,inhibition,off-target kinases [4]; read-out: % Inhibition 2,4%
same,inhibition,off-target kinases [4]; read-out: % Inhibition Avg,3%
same,inhibition,off-target kinases [5]; read-out: % Inhibition 1,68%
same,inhibition,off-target kinases [5]; read-out: % Inhibition 2,73%
same,inhibition,off-target kinases [5]; read-out: % Inhibition Avg,70%
same,inhibition,off-target kinases [6]; read-out: % Inhibition 1,99%
same,inhibition,off-target kinases [6]; read-out: % Inhibition 2,100%
same,inhibition,off-target kinases [6]; read-out: % Inhibition Avg,100%
same,% Inhibition 1,off-target kinases [7],−16%
same,% Inhibition 2,off-target kinases [7],−2%
same,% Inhibition Avg,off-target kinases [7],−9%
same,inhibition,off-target kinases [8]; read-out: % Inhibition 1,77%
same,inhibition,off-target kinases [8]; read-out: % Inhibition 2,79%
same,inhibition,off-target kinases [8]; read-out: % Inhibition Avg,78%
